Literature values in patent publication US6486118B1, “Detergent compositions” (Unilever Home & Personal Care USA, division of Conopco, Inc., priority 1999, dated 2002).
Where two headings read alike, the source gives them in different places.

[1] = other common materials, by contrast, at 20° C.

| Water Solubility (g/100 g) (highly water-soluble materials, grams of solid to form a saturated solution in 100 grams of water at 20° C.) | SMILES | Water Solubility (g/100 g) [1] |
| --- | --- | --- |
| – | O=BO[O-].[Na+] [Sodium perborate anhydrous] | 3.7 g/100 g |
| – | O=P(O)(O)OP(=O)(O)OP(=O)(O)O [Sodium tripolyphosphate anhydrous] | 15 g/100 g |
| >100 g/100 g | NC(N)=O [Urea] | – |
